Measured values reported in the NIST ThermoML archive (doi:10.1021/je8009545).

Assay: xn = mol fraction of the nth substance listed
Settings: Gas; for mass density: Gas pipette; for viscosity: Oscillating disk viscometry

COC [dimethyl ether] + N#N
Settings	mass density [kg/m3]	viscosity [mPa·s]
298.15 K, 101 kPa, x1 = 0.256	1.178	0.01483
298.15 K, 101 kPa, x1 = 0.449	1.433	0.013
298.15 K, 101 kPa, x1 = 0.752	1.783	0.01063
298.15 K, 101 kPa, x1 = 1	1.91	0.00922
298.15 K, 262 kPa, x1 = 0.752	4.839	0.0106
298.15 K, 264 kPa, x1 = 0.449	4.075	0.013
298.15 K, 296 kPa, x1 = 1	6.081	0.00918
298.15 K, 305 kPa, x1 = 0.256	4.298	0.01488
298.15 K, 475 kPa, x1 = 1	10.06	0.0091
298.15 K, 614 kPa, x1 = 0.752	11.78	0.0106
298.15 K, 640 kPa, x1 = 0.449	9.965	0.01303
298.15 K, 683 kPa, x1 = 0.256	9.296	0.01494
323.15 K, 101 kPa, x1 = 0.228	1.08	0.01629
323.15 K, 101 kPa, x1 = 0.449	1.144	0.01402
323.15 K, 101 kPa, x1 = 0.698	1.303	0.012
323.15 K, 101 kPa, x1 = 1	1.652	0.00997
323.15 K, 270 kPa, x1 = 0.698	4.353	0.01201
323.15 K, 295 kPa, x1 = 1	5.561	0.00996
323.15 K, 321 kPa, x1 = 0.449	4.449	0.01406
323.15 K, 354 kPa, x1 = 0.228	4.544	0.01632
323.15 K, 485 kPa, x1 = 0.698	7.499	0.01201
323.15 K, 486 kPa, x1 = 0.449	6.864	0.01408
323.15 K, 490 kPa, x1 = 1	9.31	0.00993
323.15 K, 553 kPa, x1 = 0.228	6.768	0.01636
323.15 K, 695 kPa, x1 = 0.698	11.57	0.01206
323.15 K, 714 kPa, x1 = 0.449	10.2	0.01408
323.15 K, 736 kPa, x1 = 1	14.71	0.00995
323.15 K, 910 kPa, x1 = 0.228	11.15	0.01636
323.15 K, 946 kPa, x1 = 0.698	15.73	0.01208
323.15 K, 976 kPa, x1 = 1	22.53	0.00994
323.15 K, 990 kPa, x1 = 0.449	13.89	0.01413
348.15 K, 101 kPa, x1 = 0.313	1.11	0.01638
348.15 K, 101 kPa, x1 = 0.491	1.237	0.01463
348.15 K, 101 kPa, x1 = 0.661	1.332	0.01319
348.15 K, 101 kPa, x1 = 1	1.332	0.01081
348.15 K, 294 kPa, x1 = 0.313	3.552	0.01639
348.15 K, 305 kPa, x1 = 1	5.17	0.01081
348.15 K, 306 kPa, x1 = 0.661	4.345	0.01319
348.15 K, 325 kPa, x1 = 0.491	4.155	0.01468
348.15 K, 519 kPa, x1 = 0.661	7.453	0.01321
348.15 K, 520 kPa, x1 = 0.313	6.153	0.01644
348.15 K, 525 kPa, x1 = 0.491	6.977	0.01471
348.15 K, 551 kPa, x1 = 1	9.705	0.01082
348.15 K, 992 kPa, x1 = 0.661	14.43	0.01327
348.15 K, 998 kPa, x1 = 0.313	11.96	0.0165
348.15 K, 1006 kPa, x1 = 1	19.03	0.01085
348.15 K, 1021 kPa, x1 = 0.491	13.54	0.01476
348.15 K, 1561 kPa, x1 = 1	35.81	0.01094
348.15 K, 1850 kPa, x1 = 1	44.66	0.01106
348.15 K, 1909 kPa, x1 = 0.491	26.07	0.01499
348.15 K, 2053 kPa, x1 = 0.661	33.49	0.01353
348.15 K, 2095 kPa, x1 = 0.313	25.47	0.01672
373.15 K, 101 kPa, x1 = 0.281	0.665	0.01773
373.15 K, 101 kPa, x1 = 0.522	0.95	0.01534
373.15 K, 101 kPa, x1 = 0.82	1.171	0.01282
373.15 K, 101 kPa, x1 = 1	1.235	0.01161
373.15 K, 301 kPa, x1 = 0.522	3.577	0.01535
373.15 K, 305 kPa, x1 = 1	4.748	0.0116
373.15 K, 312 kPa, x1 = 0.82	4.4	0.01285
373.15 K, 325 kPa, x1 = 0.281	3.419	0.01777
373.15 K, 500 kPa, x1 = 1	7.787	0.01162
373.15 K, 516 kPa, x1 = 0.82	7.217	0.01285
373.15 K, 520 kPa, x1 = 0.281	5.508	0.01777
373.15 K, 530 kPa, x1 = 0.522	6.584	0.01539
373.15 K, 1011 kPa, x1 = 0.281	10.64	0.01784
373.15 K, 1028 kPa, x1 = 1	16.71	0.01168
373.15 K, 1029 kPa, x1 = 0.522	12.76	0.0155
373.15 K, 1038 kPa, x1 = 0.82	15.16	0.01295
373.15 K, 1915 kPa, x1 = 0.281	20.8	0.01801
373.15 K, 1940 kPa, x1 = 1	35.33	0.01191
373.15 K, 1952 kPa, x1 = 0.82	30.93	0.01314
373.15 K, 2036 kPa, x1 = 0.522	25.83	0.01568
